In ChEMBL document CHEMBL2440112, “Structure-activity relationships of the aromatic site in novel anticonvulsant pyrrolo[1,2-a]pyrazine derivatives” (Bioorg Med Chem Lett, 2013):
Activity calls are given as the source filed them. The calls are words filed in the database; no cut-off is given here.

Assays:
[1] = tested on: Mus musculus; test: Anticonvulsant activity in albino mouse assessed as protection against subcutaneous metrazole-induced seizures at 100 mg/kg, ip after 0.5 hrs; format: functional, organism-based; set-up: dose 100 mg/kg
[2] = tested on: Mus musculus; test: Anticonvulsant activity in albino mouse assessed as protection against maximal electroshock-induced seizures at 100 mg/kg, ip after 4 hrs; format: functional, organism-based; set-up: dose 100 mg/kg
[3] = tested on: Mus musculus; test: Anticonvulsant activity in albino mouse assessed as protection against maximal electroshock-induced seizures at 100 mg/kg, ip after 0.5 hrs; format: functional, organism-based; set-up: dose 100 mg/kg
[4] = tested on: Mus musculus; test: Anticonvulsant activity in albino mouse assessed as protection against subcutaneous metrazole-induced seizures at 100 mg/kg, ip after 4 hrs; format: functional, organism-based; set-up: dose 100 mg/kg
[5] = tested on: Mus musculus; test: Neurotoxicity in albino mouse assessed as minimal motor impairment at 100 mg/kg, ip after 0.5 hrs by rotorod test; format: toxicity, organism-based; set-up: dose 100 mg/kg, route intraperitoneal; details: in vivo
[6] = tested on: Mus musculus; test: Neurotoxicity in albino mouse assessed as minimal motor impairment at 100 mg/kg, ip after 4 hrs by rotorod test; format: toxicity, organism-based; set-up: dose 100 mg/kg, route intraperitoneal; details: in vivo
[7] = tested on: Rattus norvegicus; test: Anticonvulsant activity in po dosed albino Sprague-Dawley rat assessed as protection against maximal electroshock-induced seizures after […] to 4 hrs; format: functional, organism-based
[8] = tested on: Mus musculus; test: Neurotoxicity in albino mouse minimal clonic seizure model assessed as minimal motor impairment at 100 mg/kg, ip after 0.5 hrs by rotorod test; format: toxicity, organism-based; set-up: dose 100 mg/kg, route intraperitoneal; details: in vivo
[9] = tested on: Rattus norvegicus; test: Anticonvulsant activity in albino Sprague-Dawley rat assessed as protection against maximal electroshock-induced seizures at 30 mg/kg, ip after 0.5 hrs; format: functional, organism-based; set-up: dose 30 mg/kg
[10] = tested on: Mus musculus; test: Anticonvulsant activity in albino mouse assessed as protection against subcutaneous metrazole-induced seizures at 100 mg/kg, ip after 0.25 hrs; format: functional, organism-based; set-up: dose 100 mg/kg
[11] = tested on: Rattus norvegicus; test: Anticonvulsant activity in albino Sprague-Dawley rat assessed as protection against maximal electroshock-induced seizures at 30 mg/kg, ip after 0.25 hrs; format: functional, organism-based; set-up: dose 30 mg/kg
[12] = tested on: Rattus norvegicus; test: Neurotoxicity in albino Sprague-Dawley rat assessed as minimal motor impairment at 30 mg/kg, ip after 2 hrs by rotorod test; format: toxicity, organism-based; set-up: dose 30 mg/kg, route intraperitoneal; details: in vivo
[13] = tested on: Mus musculus; test: Anticonvulsant activity in albino mouse assessed as protection against 6 Hz psychomotor seizure at 100 mg/kg, ip after 2 hrs by minimal clonic seizure test; format: functional, organism-based; set-up: dose 100 mg/kg
[14] = tested on: Mus musculus; test: Neurotoxicity in albino mouse minimal clonic seizure model assessed as minimal motor impairment at 100 mg/kg, ip after 2 hrs by rotorod test; format: toxicity, organism-based; set-up: dose 100 mg/kg, route intraperitoneal; details: in vivo
[15] = tested on: Mus musculus; test: Neurotoxicity in albino mouse minimal clonic seizure model assessed as minimal motor impairment at 100 mg/kg, ip after 4 hrs by rotorod test; format: toxicity, organism-based; set-up: dose 100 mg/kg, route intraperitoneal; details: in vivo
[16] = tested on: Mus musculus; test: Neurotoxicity in albino mouse minimal clonic seizure model assessed as minimal motor impairment at 100 mg/kg, ip after 0.25 hrs by rotorod test; format: toxicity, organism-based; set-up: dose 100 mg/kg, route intraperitoneal; details: in vivo
[17] = tested on: Rattus norvegicus; test: Anticonvulsant activity in albino Sprague-Dawley rat assessed as protection against maximal electroshock-induced seizures at 30 mg/kg, ip after 4 hrs; format: functional, organism-based; set-up: dose 30 mg/kg
[18] = tested on: Rattus norvegicus; test: Neurotoxicity in albino Sprague-Dawley rat assessed as minimal motor impairment at 30 mg/kg, ip after 4 hrs by rotorod test; format: toxicity, organism-based; set-up: dose 30 mg/kg, route intraperitoneal; details: in vivo
[19] = tested on: Rattus norvegicus; test: Neurotoxicity in albino Sprague-Dawley rat assessed as minimal motor impairment at 30 mg/kg, ip after 0.5 hrs by rotorod test; format: toxicity, organism-based; set-up: dose 30 mg/kg, route intraperitoneal; details: in vivo
[20] = tested on: Rattus norvegicus; test: Neurotoxicity in albino Sprague-Dawley rat assessed as minimal motor impairment at 30 mg/kg, ip after 0.25 hrs by rotorod test; format: toxicity, organism-based; set-up: dose 30 mg/kg, route intraperitoneal; details: in vivo
[21] = tested on: Mus musculus; test: Anticonvulsant activity in albino mouse assessed as protection against 6 Hz psychomotor seizure at 100 mg/kg, ip after 4 hrs by minimal clonic seizure test; format: functional, organism-based; set-up: dose 100 mg/kg
[22] = tested on: Mus musculus; test: Anticonvulsant activity in albino mouse assessed as protection against 6 Hz psychomotor seizure at 100 mg/kg, ip after 0.5 hrs by minimal clonic seizure test; format: functional, organism-based; set-up: dose 100 mg/kg
[23] = tested on: Mus musculus; test: Anticonvulsant activity in albino mouse assessed as protection against maximal electroshock-induced seizures at 100 mg/kg, ip after 1 hr; format: functional, organism-based; set-up: dose 100 mg/kg
[24] = tested on: Rattus norvegicus; test: Neurotoxicity in albino Sprague-Dawley rat assessed as minimal motor impairment at 30 mg/kg, ip after 1 hr by rotorod test; format: toxicity, organism-based; set-up: dose 30 mg/kg, route intraperitoneal; details: in vivo
[25] = tested on: Mus musculus; test: Anticonvulsant activity in albino mouse assessed as protection against maximal electroshock-induced seizures at 100 mg/kg, ip after 0.25 hrs; format: functional, organism-based; set-up: dose 100 mg/kg
[26] = tested on: Mus musculus; test: Anticonvulsant activity in albino mouse assessed as protection against 6 Hz psychomotor seizure at 100 mg/kg, ip after 0.25 hrs by minimal clonic seizure test; format: functional, organism-based; set-up: dose 100 mg/kg
[27] = tested on: Mus musculus; test: Anticonvulsant activity in albino mouse assessed as protection against subcutaneous metrazole-induced seizures at 100 mg/kg, ip after 1 hr; format: functional, organism-based; set-up: dose 100 mg/kg
[28] = tested on: Rattus norvegicus; test: Anticonvulsant activity in albino Sprague-Dawley rat assessed as protection against maximal electroshock-induced seizures at 30 mg/kg, ip after 1 hr; format: functional, organism-based; set-up: dose 30 mg/kg
[29] = tested on: Rattus norvegicus; test: Anticonvulsant activity in albino Sprague-Dawley rat assessed as protection against maximal electroshock-induced seizures at 30 mg/kg, ip after 2 hrs; format: functional, organism-based; set-up: dose 30 mg/kg
[30] = tested on: Mus musculus; test: Neurotoxicity in albino mouse assessed as minimal motor impairment at 100 mg/kg, ip after 1 hr by rotorod test; format: toxicity, organism-based; set-up: dose 100 mg/kg, route intraperitoneal; details: in vivo
[31] = tested on: Mus musculus; test: Neurotoxicity in albino mouse minimal clonic seizure model assessed as minimal motor impairment at 100 mg/kg, ip after 1 hr by rotorod test; format: toxicity, organism-based; set-up: dose 100 mg/kg, route intraperitoneal; details: in vivo
[32] = tested on: Mus musculus; test: Anticonvulsant activity in albino mouse assessed as protection against 6 Hz psychomotor seizure at 100 mg/kg, ip after 1 hr by minimal clonic seizure test; format: functional, organism-based; set-up: dose 100 mg/kg
[33] = tested on: Mus musculus; test: Neurotoxicity in albino mouse assessed as minimal motor impairment at 100 mg/kg, ip after 0.25 hrs by rotorod test; format: toxicity, organism-based; set-up: dose 100 mg/kg, route intraperitoneal; details: in vivo
[34] = species on record: Mus musculus; test: Protective index, ratio of TD50 for albino mouse minimal clonic seizure model to ED50 for albino mouse assessed as protection against 6 Hz psychomotor seizure; format: functional
[35] = tested on: Mus musculus; test: Anticonvulsant activity in ip dosed albino mouse assessed as time of peak effect for protection against 6 Hz psychomotor seizure by minimal clonic seizure test; format: functional
[36] = tested on: Mus musculus; test: Anticonvulsant activity in ip dosed albino mouse assessed as protection against 6 Hz psychomotor seizure by minimal clonic seizure test; format: functional
[37] = Neurotoxicity in ip dosed albino mouse minimal clonic seizure model assessed as minimal motor impairment by rotorod test; format: toxicity, organism-based; details: in vivo

With `O=C1NC(=O)[C@@H]2CCCN2[C@H]1c1ccco1` the Activity [1] was “inactive”, the Activity [2] was “inactive” and the Activity [3] was “inactive”. For the same molecule, the Activity [4] was “inactive”, the Activity [5] was “Toxic” and the Activity [6] was “Non-toxic”. The Activity [7] was “inactive”.
For `Cc1cccc([C@H]2C(=O)NC(=O)[C@@H]3CCCN23)c1`, the Activity [8] was “Non-toxic”, the Activity [9] was “inactive” and the Activity [10] was “Active”. The Activity [11] was “inactive”, the Activity [1] was “inactive” and the Activity [12] was “Non-toxic”. The Activity [13] was “inactive”, the Activity [14] was “Non-toxic” and the Activity [15] was “Non-toxic”. The Activity [16] was “Toxic”, the Activity [17] was “inactive” and the Activity [2] was “inactive”. For the same molecule, the Activity [18] was “Non-toxic”, the Activity [19] was “Non-toxic” and the Activity [20] was “Non-toxic”. For the same molecule, the Activity [21] was “inactive”, the Activity [22] was “Active” and the Activity [23] was “inactive”. The Activity [24] was “Non-toxic”, the Activity [25] was “Active” and the Activity [26] was “Active”. The Activity [27] was “inactive”, the Activity [3] was “Active” and the Activity [4] was “inactive”. For the same molecule, the Activity [28] was “inactive”, the Activity [29] was “inactive” and the Activity [5] was “Non-toxic”. For the same molecule, the Activity [6] was “Non-toxic”, the Activity [30] was “Non-toxic” and the Activity [31] was “Non-toxic”. For the same molecule, the Activity [32] was “inactive”, the Activity [33] was “Toxic” and the Activity [7] was “inactive”.
With `Cc1ccc([C@H]2C(=O)NC(=O)[C@@H]3CCCN23)cc1` the Activity [1] was “inactive”, the “Ratio TD50/ED50” value [34] was 4 and the Activity [13] was “inactive”. The Time [35] was 0.25 h, the Activity [2] was “inactive” and the ED50 [36] was 41.7 mg/kg. The Activity [21] was “inactive”, the Activity [22] was “Active” and the Activity [23] was “inactive”. The Activity [25] was “inactive”, the Activity [26] was “Active” and the Activity [3] was “inactive”. The TD50 [37] was 167 mg/kg, the Activity [4] was “inactive” and the Activity [5] was “Non-toxic”. For the same molecule, the Activity [6] was “Non-toxic”, the Activity [30] was “Non-toxic” and the Activity [32] was “Active”. The Activity [33] was “Non-toxic” and the Activity [7] was “inactive”.
